The Kd is the constant that tells how readily two partners part at equilibrium.

The target in assay [1] is Tyrosine-protein kinase ABL2 (Homo sapiens, UniProt P42684).
Assay [2] addresses RAC-gamma serine/threonine-protein kinase (Homo sapiens, UniProt Q9Y243).
In assay [3] the target is Casein kinase I isoform delta (Homo sapiens, UniProt P48730).
The target of assay [4] is T1, Mitogen-activated protein kinase 15 (Homo sapiens, UniProt Q8TD08).
T1 sequence (Q8TD08 whole entry): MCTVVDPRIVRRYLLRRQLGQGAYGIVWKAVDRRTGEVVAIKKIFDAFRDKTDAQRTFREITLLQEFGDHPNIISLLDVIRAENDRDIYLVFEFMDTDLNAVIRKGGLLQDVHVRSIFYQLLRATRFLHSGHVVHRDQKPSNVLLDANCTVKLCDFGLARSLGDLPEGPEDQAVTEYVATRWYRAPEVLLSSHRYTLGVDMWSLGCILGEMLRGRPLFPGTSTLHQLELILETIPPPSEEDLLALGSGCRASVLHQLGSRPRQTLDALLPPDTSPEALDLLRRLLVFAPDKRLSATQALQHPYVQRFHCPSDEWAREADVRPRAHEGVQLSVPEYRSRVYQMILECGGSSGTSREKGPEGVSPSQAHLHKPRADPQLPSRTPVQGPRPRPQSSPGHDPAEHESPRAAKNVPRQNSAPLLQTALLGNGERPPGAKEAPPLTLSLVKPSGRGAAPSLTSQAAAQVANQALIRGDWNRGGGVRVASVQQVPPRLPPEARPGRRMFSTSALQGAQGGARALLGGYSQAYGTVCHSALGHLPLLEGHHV

Assay [5] deals with T2, MAP kinase-activated protein kinase 5 (Homo sapiens, UniProt Q8IW41).
T2 sequence (Q8IW41 whole entry): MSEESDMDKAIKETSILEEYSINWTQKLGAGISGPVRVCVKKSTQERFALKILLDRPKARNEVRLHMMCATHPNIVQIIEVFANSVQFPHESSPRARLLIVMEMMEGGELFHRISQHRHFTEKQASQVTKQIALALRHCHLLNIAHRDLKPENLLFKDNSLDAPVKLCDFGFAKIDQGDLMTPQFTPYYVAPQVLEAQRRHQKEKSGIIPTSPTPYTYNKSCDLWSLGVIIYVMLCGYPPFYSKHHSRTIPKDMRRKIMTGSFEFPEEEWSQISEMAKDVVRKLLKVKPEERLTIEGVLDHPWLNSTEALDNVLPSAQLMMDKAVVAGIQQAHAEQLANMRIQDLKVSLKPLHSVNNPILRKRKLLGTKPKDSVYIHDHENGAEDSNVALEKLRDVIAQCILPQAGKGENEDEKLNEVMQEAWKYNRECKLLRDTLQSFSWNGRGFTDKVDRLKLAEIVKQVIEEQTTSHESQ

The target in assay [6] is Macrophage-stimulating protein receptor (Homo sapiens, UniProt Q04912).
Sequence of Macrophage-stimulating protein receptor (Q04912 25-304 limits assumed): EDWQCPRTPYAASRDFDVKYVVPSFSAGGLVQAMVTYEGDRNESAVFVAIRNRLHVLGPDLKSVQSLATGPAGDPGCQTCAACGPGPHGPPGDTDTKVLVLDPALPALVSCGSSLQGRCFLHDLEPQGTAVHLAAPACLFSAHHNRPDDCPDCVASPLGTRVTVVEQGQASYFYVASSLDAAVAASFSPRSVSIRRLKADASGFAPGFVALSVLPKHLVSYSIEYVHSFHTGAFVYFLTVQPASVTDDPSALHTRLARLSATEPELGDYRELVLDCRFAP
Sequence of Macrophage-stimulating protein receptor (Q04912 310-1400 limits assumed): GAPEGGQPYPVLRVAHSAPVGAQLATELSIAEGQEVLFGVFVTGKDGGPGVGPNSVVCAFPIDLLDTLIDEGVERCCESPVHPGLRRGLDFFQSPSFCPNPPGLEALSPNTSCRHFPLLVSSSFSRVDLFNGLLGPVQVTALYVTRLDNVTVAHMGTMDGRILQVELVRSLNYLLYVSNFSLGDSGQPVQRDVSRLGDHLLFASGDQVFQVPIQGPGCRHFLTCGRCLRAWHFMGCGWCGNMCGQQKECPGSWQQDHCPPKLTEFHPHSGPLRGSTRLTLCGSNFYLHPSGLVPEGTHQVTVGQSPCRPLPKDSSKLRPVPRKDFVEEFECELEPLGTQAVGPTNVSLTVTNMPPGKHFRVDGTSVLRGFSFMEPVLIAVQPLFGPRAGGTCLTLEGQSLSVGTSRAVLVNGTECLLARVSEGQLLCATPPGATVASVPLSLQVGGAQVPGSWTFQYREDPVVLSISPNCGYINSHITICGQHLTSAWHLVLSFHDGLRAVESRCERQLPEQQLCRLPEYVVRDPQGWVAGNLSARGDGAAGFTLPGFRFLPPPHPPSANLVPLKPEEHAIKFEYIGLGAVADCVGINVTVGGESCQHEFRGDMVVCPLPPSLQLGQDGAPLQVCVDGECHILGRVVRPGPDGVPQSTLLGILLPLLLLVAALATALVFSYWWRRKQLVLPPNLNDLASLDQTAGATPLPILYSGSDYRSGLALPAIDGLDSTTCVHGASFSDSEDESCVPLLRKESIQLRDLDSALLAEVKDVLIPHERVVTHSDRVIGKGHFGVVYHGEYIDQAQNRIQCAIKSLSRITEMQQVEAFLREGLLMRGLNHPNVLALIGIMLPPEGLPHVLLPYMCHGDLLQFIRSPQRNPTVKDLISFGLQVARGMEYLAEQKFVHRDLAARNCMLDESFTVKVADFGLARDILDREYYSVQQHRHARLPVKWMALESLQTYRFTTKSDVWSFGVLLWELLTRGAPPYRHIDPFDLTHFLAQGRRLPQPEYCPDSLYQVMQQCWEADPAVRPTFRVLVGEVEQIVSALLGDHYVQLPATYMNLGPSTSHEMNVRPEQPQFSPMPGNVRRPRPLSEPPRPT
Assay [7] concerns the target T3, NUAK family SNF1-like kinase 2 (Homo sapiens, UniProt Q9H093).
T3 sequence (Q9H093 whole entry): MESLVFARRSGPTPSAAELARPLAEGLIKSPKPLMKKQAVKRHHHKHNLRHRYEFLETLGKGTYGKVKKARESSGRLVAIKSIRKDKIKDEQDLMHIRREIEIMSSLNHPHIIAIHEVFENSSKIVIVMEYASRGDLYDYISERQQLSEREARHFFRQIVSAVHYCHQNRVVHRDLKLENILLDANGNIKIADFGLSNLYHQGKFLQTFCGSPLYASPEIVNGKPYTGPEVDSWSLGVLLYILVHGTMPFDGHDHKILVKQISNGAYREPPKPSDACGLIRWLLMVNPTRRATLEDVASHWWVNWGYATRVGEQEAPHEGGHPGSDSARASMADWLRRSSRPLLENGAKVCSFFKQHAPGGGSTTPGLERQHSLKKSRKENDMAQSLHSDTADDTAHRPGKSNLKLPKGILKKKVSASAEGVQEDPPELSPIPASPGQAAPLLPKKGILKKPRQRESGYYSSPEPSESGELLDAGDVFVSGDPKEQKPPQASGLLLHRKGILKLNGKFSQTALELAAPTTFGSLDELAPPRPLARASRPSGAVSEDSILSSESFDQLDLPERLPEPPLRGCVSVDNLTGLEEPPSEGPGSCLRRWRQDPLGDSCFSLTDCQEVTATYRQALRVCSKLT

In assay [8] the target is 5'-AMP-activated protein kinase catalytic subunit alpha-1 (Homo sapiens, UniProt Q13131).
Sequence of 5'-AMP-activated protein kinase catalytic subunit alpha-1 (Q13131 whole entry): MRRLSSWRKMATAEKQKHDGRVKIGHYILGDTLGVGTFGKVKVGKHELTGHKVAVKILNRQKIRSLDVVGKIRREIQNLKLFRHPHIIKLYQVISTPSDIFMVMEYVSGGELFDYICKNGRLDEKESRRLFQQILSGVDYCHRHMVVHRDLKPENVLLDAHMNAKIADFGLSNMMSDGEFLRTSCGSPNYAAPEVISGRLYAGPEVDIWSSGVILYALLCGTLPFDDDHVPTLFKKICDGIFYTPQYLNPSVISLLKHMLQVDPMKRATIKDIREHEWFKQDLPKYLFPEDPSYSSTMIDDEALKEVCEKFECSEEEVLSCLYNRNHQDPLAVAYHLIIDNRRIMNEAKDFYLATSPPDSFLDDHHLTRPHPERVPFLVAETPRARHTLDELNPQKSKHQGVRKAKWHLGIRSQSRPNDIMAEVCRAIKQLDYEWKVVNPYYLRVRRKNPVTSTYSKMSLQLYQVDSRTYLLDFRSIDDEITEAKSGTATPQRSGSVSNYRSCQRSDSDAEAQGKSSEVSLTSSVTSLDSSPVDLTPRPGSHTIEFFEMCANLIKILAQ
The target in assay [9] is cAMP-dependent protein kinase catalytic subunit alpha (Homo sapiens, UniProt P17612).
Assay [10] concerns the target Protein-tyrosine kinase 6 (Homo sapiens, UniProt Q13882).
Assay [11] addresses Ribosomal protein S6 kinase alpha-4 (Homo sapiens, UniProt O75676).
For assay [12], the target named is Mitogen-activated protein kinase kinase kinase 20 (Homo sapiens, UniProt Q9NYL2).
The target of assay [13] is T4, Ras-related protein Rab-27A (Homo sapiens, UniProt P51159).
T4 sequence (P51159 whole entry): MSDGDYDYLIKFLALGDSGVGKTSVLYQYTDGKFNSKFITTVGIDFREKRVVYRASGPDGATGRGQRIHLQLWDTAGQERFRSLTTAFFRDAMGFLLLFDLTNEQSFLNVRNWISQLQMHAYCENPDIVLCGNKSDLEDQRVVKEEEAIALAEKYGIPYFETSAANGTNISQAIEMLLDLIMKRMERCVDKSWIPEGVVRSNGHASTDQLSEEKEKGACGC

Calls of active or inactive are those of the source. Rule as the data show it, for most assays here: actives have a measured Kd and inactives only a lower limit.
Also: in the data inactive means no Kd found up to 30 µM.

Sequence of Casein kinase I isoform delta (P48730 whole entry, canonical isoform): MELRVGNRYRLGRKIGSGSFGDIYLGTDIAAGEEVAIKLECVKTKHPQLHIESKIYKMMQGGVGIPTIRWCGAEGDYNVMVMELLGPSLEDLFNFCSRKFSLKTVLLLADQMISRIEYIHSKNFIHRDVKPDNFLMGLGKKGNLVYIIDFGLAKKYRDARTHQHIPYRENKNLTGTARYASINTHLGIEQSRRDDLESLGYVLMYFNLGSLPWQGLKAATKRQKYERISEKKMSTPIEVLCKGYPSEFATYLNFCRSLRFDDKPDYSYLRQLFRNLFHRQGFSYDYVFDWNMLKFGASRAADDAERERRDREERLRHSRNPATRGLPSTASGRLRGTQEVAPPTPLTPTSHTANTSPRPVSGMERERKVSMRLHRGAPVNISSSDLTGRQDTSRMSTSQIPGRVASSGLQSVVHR
Sequence of Ribosomal protein S6 kinase alpha-4 (O75676 whole entry): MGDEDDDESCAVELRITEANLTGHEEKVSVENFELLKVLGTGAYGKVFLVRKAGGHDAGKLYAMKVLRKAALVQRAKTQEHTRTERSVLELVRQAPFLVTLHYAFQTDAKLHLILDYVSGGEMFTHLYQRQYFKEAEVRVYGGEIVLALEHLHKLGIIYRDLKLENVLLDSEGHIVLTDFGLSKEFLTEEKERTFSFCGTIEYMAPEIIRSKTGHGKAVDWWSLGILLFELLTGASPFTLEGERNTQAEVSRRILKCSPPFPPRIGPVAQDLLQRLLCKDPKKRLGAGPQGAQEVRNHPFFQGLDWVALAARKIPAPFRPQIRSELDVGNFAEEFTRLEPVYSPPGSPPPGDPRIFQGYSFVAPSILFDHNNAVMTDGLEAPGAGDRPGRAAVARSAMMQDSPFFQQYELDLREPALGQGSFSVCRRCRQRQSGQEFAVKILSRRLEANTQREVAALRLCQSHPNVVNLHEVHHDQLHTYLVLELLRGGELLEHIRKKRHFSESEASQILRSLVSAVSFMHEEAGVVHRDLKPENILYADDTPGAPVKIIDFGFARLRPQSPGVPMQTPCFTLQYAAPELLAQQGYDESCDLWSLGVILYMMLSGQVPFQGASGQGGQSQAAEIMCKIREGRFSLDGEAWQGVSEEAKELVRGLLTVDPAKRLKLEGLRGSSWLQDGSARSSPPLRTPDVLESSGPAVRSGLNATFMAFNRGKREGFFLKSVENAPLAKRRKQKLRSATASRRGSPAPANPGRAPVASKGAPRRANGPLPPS
Sequence of RAC-gamma serine/threonine-protein kinase (Q9Y243 whole entry, canonical isoform): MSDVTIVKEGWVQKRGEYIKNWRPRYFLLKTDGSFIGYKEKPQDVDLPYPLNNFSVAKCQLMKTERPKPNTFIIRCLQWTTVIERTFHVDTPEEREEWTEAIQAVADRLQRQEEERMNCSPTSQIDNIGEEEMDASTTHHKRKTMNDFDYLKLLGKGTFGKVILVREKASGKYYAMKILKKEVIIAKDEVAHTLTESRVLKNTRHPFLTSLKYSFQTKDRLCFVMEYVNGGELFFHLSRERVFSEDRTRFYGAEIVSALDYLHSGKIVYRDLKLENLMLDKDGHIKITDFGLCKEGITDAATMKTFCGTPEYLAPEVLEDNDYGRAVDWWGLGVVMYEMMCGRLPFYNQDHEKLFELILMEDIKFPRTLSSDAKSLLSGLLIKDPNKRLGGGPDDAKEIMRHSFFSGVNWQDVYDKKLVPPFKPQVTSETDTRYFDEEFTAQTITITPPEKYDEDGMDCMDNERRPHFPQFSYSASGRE
Sequence of Tyrosine-protein kinase ABL2 (P42684 whole entry): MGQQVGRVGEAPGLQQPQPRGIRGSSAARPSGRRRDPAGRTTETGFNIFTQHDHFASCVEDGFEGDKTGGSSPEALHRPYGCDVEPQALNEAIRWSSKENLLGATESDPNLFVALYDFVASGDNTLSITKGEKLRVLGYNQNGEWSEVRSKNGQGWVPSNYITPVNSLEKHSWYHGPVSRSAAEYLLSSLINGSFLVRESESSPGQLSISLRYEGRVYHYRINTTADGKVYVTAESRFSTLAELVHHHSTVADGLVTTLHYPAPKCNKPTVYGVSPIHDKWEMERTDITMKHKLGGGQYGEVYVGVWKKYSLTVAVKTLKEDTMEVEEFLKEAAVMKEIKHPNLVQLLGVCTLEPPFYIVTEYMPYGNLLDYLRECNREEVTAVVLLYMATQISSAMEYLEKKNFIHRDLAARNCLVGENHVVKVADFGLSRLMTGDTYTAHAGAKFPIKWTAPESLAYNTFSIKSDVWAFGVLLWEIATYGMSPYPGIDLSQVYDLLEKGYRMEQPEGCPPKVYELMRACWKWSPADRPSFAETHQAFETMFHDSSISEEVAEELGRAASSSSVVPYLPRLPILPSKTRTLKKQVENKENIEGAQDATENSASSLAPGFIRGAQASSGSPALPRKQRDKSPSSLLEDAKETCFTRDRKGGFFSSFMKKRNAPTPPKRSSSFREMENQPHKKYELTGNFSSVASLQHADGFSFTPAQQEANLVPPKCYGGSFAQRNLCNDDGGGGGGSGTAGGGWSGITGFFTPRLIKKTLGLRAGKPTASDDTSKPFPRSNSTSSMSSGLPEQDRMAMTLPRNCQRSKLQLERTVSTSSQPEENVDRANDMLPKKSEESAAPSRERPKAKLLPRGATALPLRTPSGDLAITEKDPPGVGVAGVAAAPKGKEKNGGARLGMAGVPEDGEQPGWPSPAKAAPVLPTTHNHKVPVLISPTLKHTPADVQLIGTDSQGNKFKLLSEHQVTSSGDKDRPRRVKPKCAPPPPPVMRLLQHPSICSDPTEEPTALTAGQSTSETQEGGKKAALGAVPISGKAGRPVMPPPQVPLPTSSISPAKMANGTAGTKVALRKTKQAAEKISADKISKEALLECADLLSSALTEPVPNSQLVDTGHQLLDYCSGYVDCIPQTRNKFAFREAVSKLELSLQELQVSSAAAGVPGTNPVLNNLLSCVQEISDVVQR

As for `C=CCN(/C=C1/C(=O)O[C@H](COC)[C@@]2(C)C1=C(O)C(=O)C1=C2[C@H](OC(C)=O)C[C@]2(C)C(=O)CC[C@@H]12)CC=C` [SONOLISIB], the Kd in [1], in [2], in assay [3], in assay [4], in assay [5] and in assay [6] was > 30 µM (inactive) in each case. The Kd in [7], in [8], in assay [9], in assay [10], in assay [11] and in [12] was > 30 µM (inactive) in each case.
Turning to `Cc1c(Cn2c(C)nc3c(C(=O)O)cc(N4CCOCC4)cc32)cccc1C(F)(F)F` [GSK-2636771], the Kd in assay [1], in [2], in assay [3], in assay [4], in assay [5] and in assay [6] was > 30 µM (inactive) in each case. In addition, the Kd in assay [7], in assay [8], in assay [9], in assay [10], in assay [11] and in assay [12] was > 30 µM (inactive) each time.
For the compound `Cn1c(=O)c(F)c(Nc2ccc(I)cc2F)c2c(=O)n(C[C@@H](O)CO)cnc21` [TAK-733], the Kd in [1], in [2], in assay [3], in assay [4], in assay [5] and in assay [6] was > 30 µM (inactive) each time. The Kd in assay [7], in [8], in assay [9], in [10], in assay [11] and in [12] was > 30 µM (inactive) in each case.
As for `COc1ccc2c(OCc3nnc4ccc(-c5ccccc5)nn34)ccnc2c1` [AMG-208], the Kd in assay [1], in [2], in assay [3], in assay [4], in [5] and in [6] was > 30 µM (inactive) throughout. In addition, the Kd in assay [8], in assay [9], in assay [10], in assay [13], in assay [11] and in [12] was > 30 µM (inactive) in each case.
Turning to `CC(C)(O)CC(=O)NCCn1ccc2ncnc(Nc3ccc(Oc4cccc(C(F)(F)F)c4)c(Cl)c3)c21` [TAK-285], the Kd in assay [1], in assay [2], in [3], in assay [4], in assay [5] and in assay [6] was > 30 µM (inactive) in each case. The Kd in [7], in assay [8], in [9], in assay [10], in assay [11] and in assay [12] was > 30 µM (inactive) throughout.
As for `COc1cc2ncnc(Nc3ccc(O)cc3)c2cc1OC` [WHI-P131], the Kd in assay [1], in [2], in assay [3], in [4], in assay [5] and in [6] was > 30 µM (inactive) in each case. In addition, the Kd in [7], in assay [8], in [9], in assay [10], in assay [11] and in assay [12] was > 30 µM (inactive) throughout.
On to `C=CC(=O)Nc1cccc(Nc2nc(Nc3ccc(N4CCN(C(C)=O)CC4)cc3OC)ncc2C(F)(F)F)c1` [ROCILETINIB], for which the Kd in assay [1], in assay [2], in assay [3], in assay [4], in [5] and in [6] was > 30 µM (inactive) in each case. Moreover, the Kd in assay [7], in [8], in assay [9], in assay [10], in assay [11] and in assay [12] was > 30 µM (inactive) throughout.
In the case of `N#CCNC(=O)c1ccc(-c2ccnc(Nc3ccc(N4CCOCC4)cc3)n2)cc1` [MOMELOTINIB], the Kd in assay [1], in [2], in [3], in [4], in [5] and in [6] was > 30 µM (inactive) each time. Besides, the Kd in assay [7], in [8], in assay [9], in assay [10], in [13] and in assay [11] was > 30 µM (inactive) throughout.
Regarding `NC[C@@](O)(c1ccc(Cl)cc1)c1ccc(-c2cn[nH]c2)cc1` [AT-13148], the Kd in assay [1], in [3], in assay [4], in assay [5], in assay [6] and in assay [7] was > 30 µM (inactive) each time. The Kd in [8] is > 30 µM (inactive); in [9], 0.015 µM (active); in [10], > 30 µM (inactive); in assay [13] it was > 30 µM (inactive); in assay [11] it was > 30 µM (inactive); in assay [12], > 30 µM (inactive).
Turning to `O=C(O)c1ccc2c(c1)nc(Nc1cccc(Cl)c1)c1ccncc12` [SILMITASERTIB], the Kd in assay [1], in assay [2], in assay [3], in assay [4], in [5] and in [6] was > 30 µM (inactive) in each case. Also, the Kd was > 30 µM (inactive) in assay [7]; 15.4 µM (active) in assay [8]; > 30 µM (inactive) in assay [9]; > 30 µM (inactive) in assay [10]; > 30 µM (inactive) in assay [11]; > 30 µM (inactive) in assay [12].

The values above are taken from ChEMBL document CHEMBL3991601, “The target landscape of clinical kinase drugs” (Science, 2017).
